Measured values taken from PubChem BioAssay AID1918936 (Molecular Pharmacology Branch, DTP, NCI, 2023).
“And” between values parts separate entries of the source, which are not always exact repeats. Identical values can stand only once. Blank lines part the entries; values can stand above or below the molecule they belong to.

System: 349418-098-R-PDC complex spheroid viability
Experiment: Anticancer human tumor 349418-098-R-PDC patient-derived lung adenocarcinoma cell line growth inhibition
Details: for viability, T/C: stronger effect = lower value
Outline: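 Complex spheroids of tumor cells with HUVEC and human MSCs, exposed to iadademstat combined with other agents. Each agent tested in half-log steps from near clinical Cmax (else 10 microM top), DMSO ≤0.25%.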

[1] = curve of first compound, second compound 0.1 µM
[2] = curve of first compound, second compound 0.316 µM
[3] = curve of first compound, second compound 1 µM
[4] = curve of first compound, second compound 3.16 µM
[5] = curve of first compound, second compound 10 µM
[6] = second compound 0.1 µM, first compound 0.00316 µM
[7] = second compound 0.1 µM, first compound 0.01 µM
[8] = second compound 0.1 µM, first compound 0.0316 µM
[9] = second compound 0.1 µM, first compound 0.1 µM
[10] = second compound 0.316 µM, first compound 0.00316 µM
[11] = second compound 0.316 µM, first compound 0.01 µM
[12] = second compound 0.316 µM, first compound 0.0316 µM
[13] = second compound 0.316 µM, first compound 0.1 µM
[14] = second compound 1 µM, first compound 0.00316 µM
[15] = second compound 1 µM, first compound 0.01 µM
[16] = second compound 1 µM, first compound 0.0316 µM
[17] = second compound 1 µM, first compound 0.1 µM
[18] = second compound 3.16 µM, first compound 0.00316 µM
[19] = second compound 3.16 µM, first compound 0.01 µM
[20] = second compound 3.16 µM, first compound 0.0316 µM
[21] = second compound 3.16 µM, first compound 0.1 µM
[22] = second compound 10 µM, first compound 0.00316 µM
[23] = second compound 10 µM, first compound 0.01 µM
[24] = second compound 10 µM, first compound 0.0316 µM
[25] = second compound 10 µM, first compound 0.1 µM
[26] = second compound 0.1 µM, first compound 0.00949 µM
[27] = second compound 0.1 µM, first compound 0.03 µM
[28] = second compound 0.1 µM, first compound 0.0949 µM
[29] = second compound 0.1 µM, first compound 0.3 µM
[30] = second compound 0.316 µM, first compound 0.00949 µM
[31] = second compound 0.316 µM, first compound 0.03 µM
[32] = second compound 0.316 µM, first compound 0.0949 µM
[33] = second compound 0.316 µM, first compound 0.3 µM
[34] = second compound 1 µM, first compound 0.00949 µM
[35] = second compound 1 µM, first compound 0.03 µM
[36] = second compound 1 µM, first compound 0.0949 µM
[37] = second compound 1 µM, first compound 0.3 µM
[38] = second compound 3.16 µM, first compound 0.00949 µM
[39] = second compound 3.16 µM, first compound 0.03 µM
[40] = second compound 3.16 µM, first compound 0.0949 µM
[41] = second compound 3.16 µM, first compound 0.3 µM
[42] = second compound 10 µM, first compound 0.00949 µM
[43] = second compound 10 µM, first compound 0.03 µM
[44] = second compound 10 µM, first compound 0.0949 µM
[45] = second compound 10 µM, first compound 0.3 µM
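Also: spheroids exposed to agents for seven days before readout.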
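For viability, T/C in this document: 100% = DMSO vehicle control wells.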

IC50 (curve of compound): 4560 nM and 1600 nM
SMILES: CC1(C)CCC(CN2CCN(c3ccc(C(=O)NS(=O)(=O)c4ccc(NCC5CCOCC5)c([N+](=O)[O-])c4)c(Oc4cnc5[nH]ccc5c4)c3)CC2)=C(c2ccc(Cl)cc2)C1
viability, T/C (compound 0.0316 µM): 98.4% and 106%
viability, T/C (compound 0.1 µM): 88.2% and 103%
viability, T/C (compound 0.316 µM): 95.9% and 91.1%
viability, T/C (compound 1 µM): 84.3% and 68.4%
viability, T/C (compound 3.16 µM): 67.7% and 24.9%
viability, T/C (compound 10 µM): 13.5% and 0.24%

SMILES: Cn1ncnc1C1c2n[nH]c(=O)c3cc(F)cc(c23)NC1c1ccc(F)cc1 (centres undefined) + NC1CC1c1ccc(-c2cccc(O)c2)cc1
IC50 [1]: > 100 nM
IC50 [2]: > 100 nM
IC50 [3]: > 100 nM
IC50 [4]: > 100 nM
IC50 [5]: > 100 nM
viability, T/C (second compound 0.1 µM, first compound 0.000316 µM): 115%
viability, T/C (second compound 0.1 µM, first compound 0.001 µM): 105%
viability, T/C [6]: 112%
viability, T/C [7]: 105%
viability, T/C [8]: 101%
viability, T/C [9]: 102%
viability, T/C (second compound 0.316 µM, first compound 0.000316 µM): 112%
viability, T/C (second compound 0.316 µM, first compound 0.001 µM): 110%
viability, T/C [10]: 111%
viability, T/C [11]: 104%
viability, T/C [12]: 106%
viability, T/C [13]: 101%
viability, T/C (second compound 1 µM, first compound 0.000316 µM): 119%
viability, T/C (second compound 1 µM, first compound 0.001 µM): 112%
viability, T/C [14]: 106%
viability, T/C [15]: 107%
viability, T/C [16]: 108%
viability, T/C [17]: 101%
viability, T/C (second compound 3.16 µM, first compound 0.000316 µM): 114%
viability, T/C (second compound 3.16 µM, first compound 0.001 µM): 117%
viability, T/C [18]: 105%
viability, T/C [19]: 115%
viability, T/C [20]: 103%
viability, T/C [21]: 103%
viability, T/C (second compound 10 µM, first compound 0.000316 µM): 99.1%
viability, T/C (second compound 10 µM, first compound 0.001 µM): 100%
viability, T/C [22]: 98.9%
viability, T/C [23]: 96.9%
viability, T/C [24]: 90.9%
viability, T/C [25]: 86.8%

IC50 (curve of compound): < 0.316 nM
SMILES: CC(C)CC(NC(=O)C(Cc1ccccc1)NC(=O)c1cnccn1)B(O)O (centres undefined)
viability, T/C (compound 0.000316 µM): 9.44% and 1.92%
viability, T/C (compound 0.001 µM): 1.9% and 1.46%
viability, T/C (compound 0.00316 µM): 1.14% and 0.84%
viability, T/C (compound 0.01 µM): 0.78% and 0.64%
viability, T/C (compound 0.0316 µM): 0.63% and 0.42%
viability, T/C (compound 0.1 µM): 0.67% and 0.41%

SMILES: COc1cc(Nc2ncc3c(n2)-c2ccc(Cl)cc2C(c2c(F)cccc2OC)=NC3)ccc1C(=O)O + NC1CCC(NC2CC2c2ccccc2)CC1
IC50 [1]: 21.2 nM
IC50 [2]: 18.1 nM
IC50 [3]: 28 nM
IC50 [4]: 15.8 nM
IC50 [5]: 21.2 nM
viability, T/C [6]: 99.2%
viability, T/C [7]: 64.7%
viability, T/C [8]: 41.8%
viability, T/C [9]: 38.5%
viability, T/C (second compound 0.1 µM, first compound 0.316 µM): 32.1%
viability, T/C (second compound 0.1 µM, first compound 1 µM): 37.4%
viability, T/C [10]: 87.3%
viability, T/C [11]: 63.1%
viability, T/C [12]: 37.7%
viability, T/C [13]: 38.9%
viability, T/C (second compound 0.316 µM, first compound 0.316 µM): 39.7%
viability, T/C (second compound 0.316 µM, first compound 1 µM): 32.5%
viability, T/C [14]: 85%
viability, T/C [15]: 62.8%
viability, T/C [16]: 43.6%
viability, T/C [17]: 47.3%
viability, T/C (second compound 1 µM, first compound 0.316 µM): 40.9%
viability, T/C (second compound 1 µM, first compound 1 µM): 34.5%
viability, T/C [18]: 99.5%
viability, T/C [19]: 58.9%
viability, T/C [20]: 35.6%
viability, T/C [21]: 40.4%
viability, T/C (second compound 3.16 µM, first compound 0.316 µM): 31.9%
viability, T/C (second compound 3.16 µM, first compound 1 µM): 37.7%
viability, T/C [22]: 75.3%
viability, T/C [23]: 54.2%
viability, T/C [24]: 48.2%
viability, T/C [25]: 41.6%
viability, T/C (second compound 10 µM, first compound 0.316 µM): 34%
viability, T/C (second compound 10 µM, first compound 1 µM): 34.7%

SMILES: Nc1ncn(C2CC(O)C(CO)S2)c(=O)n1 (centres undefined) + NC1CC1c1ccc(-c2cccc(O)c2)cc1
IC50 [1]: 25 nM
IC50 [2]: 23.9 nM
IC50 [3]: 27.9 nM
IC50 [4]: 27.1 nM
IC50 [5]: 19.5 nM
viability, T/C (second compound 0.1 µM, first compound 0.000949 µM): 113%
viability, T/C (second compound 0.1 µM, first compound 0.003 µM): 112%
viability, T/C [26]: 87.1%
viability, T/C [27]: 42.6%
viability, T/C [28]: 15.4%
viability, T/C [29]: 5.99%
viability, T/C (second compound 0.316 µM, first compound 0.000949 µM): 112%
viability, T/C (second compound 0.316 µM, first compound 0.003 µM): 106%
viability, T/C [30]: 93%
viability, T/C [31]: 39%
viability, T/C [32]: 12.2%
viability, T/C [33]: 6.04%
viability, T/C (second compound 1 µM, first compound 0.000949 µM): 117%
viability, T/C (second compound 1 µM, first compound 0.003 µM): 107%
viability, T/C [34]: 96.8%
viability, T/C [35]: 46.3%
viability, T/C [36]: 13.5%
viability, T/C [37]: 5.81%
viability, T/C (second compound 3.16 µM, first compound 0.000949 µM): 115%
viability, T/C (second compound 3.16 µM, first compound 0.003 µM): 115%
viability, T/C [38]: 96.3%
viability, T/C [39]: 44.6%
viability, T/C [40]: 17.3%
viability, T/C [41]: 6.89%
viability, T/C (second compound 10 µM, first compound 0.000949 µM): 87.2%
viability, T/C (second compound 10 µM, first compound 0.003 µM): 81.6%
viability, T/C [42]: 75.4%
viability, T/C [43]: 34.5%
viability, T/C [44]: 14.5%
viability, T/C [45]: 5.54%

SMILES: Nc1ccccc1NC(=O)c1ccc(CNC(=O)OCc2cccnc2)cc1 + NC1CCC(NC2CC2c2ccccc2)CC1
IC50 [1]: 244 nM
IC50 [2]: 279 nM
IC50 [3]: 224 nM
IC50 [4]: 314 nM
IC50 [5]: 269 nM
viability, T/C [26]: 106%
viability, T/C [27]: 88.6%
viability, T/C [28]: 76.2%
viability, T/C [29]: 46.2%
viability, T/C (second compound 0.1 µM, first compound 0.949 µM): 15.4%
viability, T/C (second compound 0.1 µM, first compound 3 µM): 5.1%
viability, T/C [30]: 102%
viability, T/C [31]: 97.3%
viability, T/C [32]: 81.8%
viability, T/C [33]: 48.9%
viability, T/C (second compound 0.316 µM, first compound 0.949 µM): 15.4%
viability, T/C (second compound 0.316 µM, first compound 3 µM): 5.32%
viability, T/C [34]: 117%
viability, T/C [35]: 85.9%
viability, T/C [36]: 73.6%
viability, T/C [37]: 46.3%
viability, T/C (second compound 1 µM, first compound 0.949 µM): 15.9%
viability, T/C (second compound 1 µM, first compound 3 µM): 5.11%
viability, T/C [38]: 104%
viability, T/C [39]: 85.8%
viability, T/C [40]: 83.6%
viability, T/C [41]: 53%
viability, T/C (second compound 3.16 µM, first compound 0.949 µM): 15.6%
viability, T/C (second compound 3.16 µM, first compound 3 µM): 5.33%
viability, T/C [42]: 96.1%
viability, T/C [43]: 91.1%
viability, T/C [44]: 75.5%
viability, T/C [45]: 50.2%
viability, T/C (second compound 10 µM, first compound 0.949 µM): 12.7%
viability, T/C (second compound 10 µM, first compound 3 µM): 4.33%
